Laboratory results as given in PubChem BioAssay AID330 (DTP/NCI, 2004).
Where “and” joins values, the source holds several entries; their conditions need not be identical. Equal entries are not always repeated. Toxic doses and inconclusive results are not listed. Peptide text beside a SMILES is read from it. * marks the point of attachment. Cbz = O=C(OCc1ccccc1)*

Test system: P388 leukemia ip, CD2F1 mice, survival T/C
Experiment: NCI In Vivo Anticancer Drug Screen. Data for tumor model P388 Leukemia (intraperitoneal) in CD2F1 (CDF1) mice
Conditions: endpoint: median survival time, higher = longer survival
In short: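 Mice carrying the transplanted tumor received test compound or vehicle. Survival was recorded in each group, and the value is the treated-group measurement divided by that of the vehicle-treated control group.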

[1] = dose: 50.0 mg/kg/injection, schedule: Q01DX005 (ip), vehicle: saline with Tween-80
[2] = dose: 50.0 mg/kg/injection, schedule: Q01DX009 (ip), vehicle: saline with Tween-80
[3] = dose: 50.0 mg/kg/injection, schedule: Q01DX009 (ip), vehicle: saline
[4] = dose: 100.0 mg/kg/injection, schedule: Q01DX005 (ip), vehicle: saline with Tween-80
[5] = dose: 100.0 mg/kg/injection, schedule: Q01DX009 (ip), vehicle: saline with Tween-80
[6] = dose: 50.0 mg/kg/injection, schedule: Q01DX009 (ip), vehicle: Klucel (hydroxypropylcellulose) (HPC)
[7] = dose: 100.0 mg/kg/injection, schedule: Q01DX009 (ip), vehicle: Klucel (hydroxypropylcellulose) (HPC)
[8] = dose: 200.0 mg/kg/injection, schedule: Q01DX009 (ip), vehicle: Klucel (hydroxypropylcellulose) (HPC)
[9] = dose: 12.5 mg/kg/injection, schedule: Q01DX005 (ip), vehicle: saline with Tween-80
[10] = dose: 200.0 mg/kg/injection, schedule: Q01DX009 (ip), vehicle: saline with Tween-80
[11] = dose: 60.0 mg/kg/injection, schedule: Q01DX005 (ip), vehicle: saline with Tween-80
[12] = dose: 120.0 mg/kg/injection, schedule: Q01DX005 (ip), vehicle: saline with Tween-80
[13] = dose: 240.0 mg/kg/injection, schedule: Q01DX005 (ip), vehicle: saline with Tween-80
[14] = dose: 60.0 mg/kg/injection, schedule: Q01DX005 (ip), vehicle: saline
[15] = dose: 120.0 mg/kg/injection, schedule: Q01DX005 (ip), vehicle: saline
[16] = dose: 240.0 mg/kg/injection, schedule: Q01DX005 (ip), vehicle: saline

With `CCOC1CC(C)(O)Cc2cc3c(c(O)c21)C(=O)c1c(O)cc2c(c1C3=O)OC1OC2(C)C(O)C(N(C)C)C1O` (centres undefined) the T/C (dose: 2.5 mg/kg/injection, schedule: Q01DX009 (ip), vehicle: other) was 150 % of control and 156 % of control, the T/C (dose: 3.25 mg/kg/injection, schedule: Q01DX009 (ip), vehicle: other) was 151 % of control and the T/C (dose: 5.0 mg/kg/injection, schedule: Q01DX009 (ip), vehicle: other) was 166 % of control and 207 % of control. For the same molecule, the T/C (dose: 6.5 mg/kg/injection, schedule: Q01DX009 (ip), vehicle: other) was 163 % of control, the T/C (dose: 10.0 mg/kg/injection, schedule: Q01DX009 (ip), vehicle: other) was 178 % of control and 205 % of control and the T/C (dose: 13.0 mg/kg/injection, schedule: Q01DX009 (ip), vehicle: other) was 93 % of control. The T/C (dose: 20.0 mg/kg/injection, schedule: Q01DX009 (ip), vehicle: other) was 87 % of control.

For `BrC[P+](CBr)(CBr)CBr`, the T/C (dose: 12.5 mg/kg/injection, schedule: Q01DX009 (ip), vehicle: saline) was 151 % of control, the T/C (dose: 25.0 mg/kg/injection, schedule: Q01DX009 (ip), vehicle: saline) was 150 % of control and the T/C [1] was 114 % of control and 117 % of control. The T/C [2] was 151 % of control, the T/C [3] was 163 % of control and the T/C [4] was 123 % of control. For the same molecule, the T/C [5] was 157 % of control.

For `CC1=N/C(=C\c2ccccc2Br)C(=O)O1`, the T/C (dose: 50.0 mg/kg/injection, schedule: Q01DX005 (ip), vehicle: saline) was 114 % of control, the T/C (dose: 100.0 mg/kg/injection, schedule: Q01DX005 (ip), vehicle: saline) was 119 % of control and the T/C (dose: 200.0 mg/kg/injection, schedule: Q01DX005 (ip), vehicle: saline) was 119 % of control.

With `CCCCCCCCCCCCCCCC(=O)OCC(CO)OC(=O)CCCCCCCCCCCCCCC` (centres undefined) the T/C [6] was 91 % of control, the T/C [7] was 87 % of control and the T/C [8] was 89 % of control.

`CC[n+]1ccc(C(=O)NN)cc1` was tested, and the T/C (dose: 12.5 mg/kg/injection, schedule: Q04DX002 (ip), vehicle: saline with Tween-80) was 97 % of control, the T/C (dose: 25.0 mg/kg/injection, schedule: Q04DX002 (ip), vehicle: saline with Tween-80) was 99 % of control and the T/C (dose: 50.0 mg/kg/injection, schedule: Q04DX002 (ip), vehicle: saline with Tween-80) was 105 % of control.

For `COc1ccc(-c2nnc(-c3ccc(Cl)cc3)c(=O)[nH]2)cc1`, the T/C (dose: 6.25 mg/kg/injection, schedule: Q01DX005 (ip), vehicle: saline with Tween-80) was 91 % of control and the T/C [9] was 90 % of control.

`O=C(NO)C(O)C(O)C(O)CO` (centres undefined) was tested, and the T/C [3] was 101 % of control, the T/C (dose: 100.0 mg/kg/injection, schedule: Q01DX009 (ip), vehicle: saline) was 104 % of control and the T/C (dose: 200.0 mg/kg/injection, schedule: Q01DX009 (ip), vehicle: saline) was 104 % of control.

In the case of `CC(C)(C)C1=CP(=O)(c2ccccc2)C=C(C(C)(C)C)N1`, the T/C [1] was 106 % of control, the T/C [4] was 108 % of control and the T/C (dose: 200.0 mg/kg/injection, schedule: Q01DX005 (ip), vehicle: saline with Tween-80) was 98 % of control.

For `SCc1ccccc1CS`, the T/C [2] was 110 % of control and 112 % of control and 114 % of control, the T/C [5] was 110 % of control and 114 % of control and 121 % of control and the T/C [10] was 107 % of control.

`CCCCOc1ccc(C(=S)NC(=O)Nc2ccccc2)cc1` was tested, and the T/C (dose: 3.0 mg/kg/injection, schedule: Q01DX009 (ip), vehicle: saline with Tween-80) was 123 % of control, the T/C (dose: 6.0 mg/kg/injection, schedule: Q01DX009 (ip), vehicle: saline with Tween-80) was 103 % of control and the T/C (dose: 12.0 mg/kg/injection, schedule: Q01DX009 (ip), vehicle: saline with Tween-80) was 98 % of control.

In the case of `COC(=O)CCC(=O)Nc1ccccc1C(F)(F)F`, the T/C [11] was 102 % of control, the T/C [12] was 108 % of control and the T/C [13] was 107 % of control.

With `Fc1cccc(F)c1C(Nc1nncs1)Nc1nncs1` the T/C [11] was 108 % of control, the T/C [12] was 109 % of control and the T/C [13] was 160 % of control.

In the case of `CC(C)C(NC(=O)C(Cc1cnc[nH]1)NC(=O)OCc1ccccc1)C(=O)O` (stereo not drawn) (Cbz-His-Val-OH; configuration not given here), the T/C (dose: 50.0 mg/kg/injection, schedule: Q01DX005 (ip), vehicle: Klucel (hydroxypropylcellulose) (HPC)) was 101 % of control, the T/C (dose: 100.0 mg/kg/injection, schedule: Q01DX005 (ip), vehicle: Klucel (hydroxypropylcellulose) (HPC)) was 96 % of control and the T/C (dose: 200.0 mg/kg/injection, schedule: Q01DX005 (ip), vehicle: Klucel (hydroxypropylcellulose) (HPC)) was 100 % of control.

In the case of `O=C(CC(=O)c1ccc(Cl)s1)C(=O)Nc1cccc(C(F)(F)F)c1`, the T/C [11] was 105 % of control, the T/C [12] was 102 % of control and the T/C [13] was 106 % of control.

For `CC12CCCCC1=Nc1ccc3ccccc3c12` (centres undefined), the T/C (dose: 12.5 mg/kg/injection, schedule: Q01DX009 (ip), vehicle: saline with Tween-80) was 92 % of control, the T/C (dose: 25.0 mg/kg/injection, schedule: Q01DX009 (ip), vehicle: saline with Tween-80) was 90 % of control and the T/C [2] was 92 % of control.

For `O=c1c(N=Nc2nc3ccccc3s2)c(O)n(-c2ccccc2)c(=S)n1-c1ccccc1`, the T/C [14] was 109 % of control, the T/C [15] was 100 % of control and the T/C [16] was 106 % of control.

In the case of `CCOC(=O)Nc1cc2c(c(N)n1)N=C(c1ccc(C)c(C)c1)CN2`, the T/C (dose: 3.12 mg/kg/injection, schedule: Q01DX005 (ip), vehicle: saline with Tween-80) was 122 % of control and the T/C [9] was 88 % of control.

For `OC(c1cc(-c2ccc(Cl)cc2)nc2ccccc12)C1CCCCN1` (centres undefined), the T/C [1] was 105 % of control and the T/C [4] was 113 % of control.

With `Cc1ncc(COP(=O)(O)O)c(C2NCCS2)c1O` (centres undefined) the T/C [14] was 102 % of control, the T/C [15] was 105 % of control and the T/C [16] was 102 % of control.

With `COC(=O)c1cc(-c2ccc(Cl)c(Cl)c2)[nH]c(=O)c1C#N` the T/C [11] was 100 % of control, the T/C [12] was 103 % of control and the T/C [13] was 94 % of control.

For `c1ccc2sc(SSc3nc4ccccc4s3)nc2c1`, the T/C [2] was 110 % of control, the T/C [5] was 108 % of control and the T/C [10] was 104 % of control. For the same molecule, the T/C (dose: 400.0 mg/kg/injection, schedule: Q01DX009 (ip), vehicle: saline with Tween-80) was 109 % of control.

`O=C(O)/C(=N/NC(=O)c1ccccc1)c1ccccc1` was tested, and the T/C (dose: 100.0 mg/kg/injection, schedule: Q04DX002 (ip), vehicle: Klucel (hydroxypropylcellulose) (HPC)) was 98 % of control, the T/C (dose: 200.0 mg/kg/injection, schedule: Q04DX002 (ip), vehicle: Klucel (hydroxypropylcellulose) (HPC)) was 98 % of control and the T/C (dose: 400.0 mg/kg/injection, schedule: Q04DX002 (ip), vehicle: Klucel (hydroxypropylcellulose) (HPC)) was 92 % of control.

With `CN(C)CCCSc1c2ccccc2nc2cccc([N+](=O)[O-])c12` the T/C [11] was 94 % of control and the T/C [12] was 106 % of control.

With `CN(Cc1cnc2nc(N[Si](C)(C)C)nc(N[Si](C)(C)C)c2n1)c1ccc(C(=O)NC(CCC(=O)O[Si](C)(C)C)C(=O)O[Si](C)(C)C)cc1` (centres undefined) the T/C (dose: 0.63 mg/kg/injection, schedule: Q01DX009 (ip), vehicle: saline) was 165 % of control, the T/C (dose: 1.25 mg/kg/injection, schedule: Q01DX009 (ip), vehicle: saline) was 191 % of control and the T/C (dose: 1.9 mg/kg/injection, schedule: Q04DX003 (ip), vehicle: saline) was 159 % of control. The T/C (dose: 2.5 mg/kg/injection, schedule: Q01DX009 (ip), vehicle: saline) was 226 % of control, the T/C (dose: 3.8 mg/kg/injection, schedule: Q04DX003 (ip), vehicle: saline) was 177 % of control and the T/C (dose: 7.5 mg/kg/injection, schedule: Q04DX003 (ip), vehicle: saline) was 195 % of control. For the same molecule, the T/C (dose: 15.0 mg/kg/injection, schedule: Q04DX003 (ip), vehicle: saline) was 218 % of control, the T/C (dose: 30.0 mg/kg/injection, schedule: Q04DX003 (ip), vehicle: saline) was 236 % of control and the T/C (dose: 60.0 mg/kg/injection, schedule: Q04DX003 (ip), vehicle: saline) was 109 % of control.

For `Cc1nc2c(Cl)cc(Cl)cc2c(=O)n1CC(=O)NNC(N)=S`, the T/C [2] was 97 % of control, the T/C [5] was 94 % of control and the T/C [10] was 93 % of control.

For `N#CCCCCCN1CCN(c2cccc(Cl)c2)CC1`, the T/C [6] was 100 % of control, the T/C [7] was 100 % of control and the T/C [8] was 96 % of control.
